Assay results reported in ChEMBL document CHEMBL4507301 (2021).

How the values were obtained:
[1] = molecular target: Tyrosine-protein kinase ABL1 (Homo sapiens) (UniProt P00519); settings: Compound concentration 1000.0 nM
[2] = molecular target: Macrophage colony-stimulating factor 1 receptor (Homo sapiens) (UniProt P07333); settings: Compound concentration 1000.0 nM
[3] = molecular target: Serine/threonine-protein kinase Sgk2 (Homo sapiens) (UniProt Q9HBY8); settings: Compound concentration 1000.0 nM
[4] = molecular target: Mitogen-activated protein kinase 3 (Homo sapiens) (UniProt P27361); settings: Compound concentration 1000.0 nM
[5] = molecular target: Serine/threonine-protein kinase BRSK1 (Homo sapiens) (UniProt Q8TDC3); settings: Compound concentration 1000.0 nM
[6] = test system: Epidermal growth factor receptor (Homo sapiens), P00533 [UNDEFINED MUTATION]; settings: Compound concentration 1000.0 nM
[7] = molecular target: D(1A) dopamine receptor (Homo sapiens) (UniProt P21728); settings: Compound concentration 10.0 uM
[8] = molecular target: Epidermal growth factor receptor (Homo sapiens) (UniProt P00533); settings: Compound concentration 1000.0 nM
[9] = molecular target: Cyclin-dependent kinase-like 3 (Homo sapiens) (UniProt Q8IVW4); settings: Compound concentration 1000.0 nM
[10] = molecular target: Phosphatidylinositol 4-phosphate 3-kinase C2 domain-containing subunit beta (Homo sapiens) (UniProt O00750); settings: Compound concentration 1000.0 nM
[11] = molecular target: Bone morphogenetic protein receptor type-2 (Homo sapiens) (UniProt Q13873); settings: Compound concentration 1000.0 nM
[12] = molecular target: Phosphatidylinositol 5-phosphate 4-kinase type-2 beta (Homo sapiens) (UniProt P78356); settings: Compound concentration 1000.0 nM
[13] = molecular target: MAP kinase-interacting serine/threonine-protein kinase 1 (Homo sapiens) (UniProt Q9BUB5); settings: Compound concentration 1000.0 nM
[14] = molecular target: 5-hydroxytryptamine receptor 2C (Homo sapiens) (UniProt P28335); settings: Compound concentration 10.0 uM
[15] = molecular target: Serine/threonine-protein kinase DCLK1 (Homo sapiens) (UniProt O15075); settings: Compound concentration 1000.0 nM
[16] = molecular target: Protein-tyrosine kinase 6 (Homo sapiens) (UniProt Q13882); settings: Compound concentration 1000.0 nM
[17] = molecular target: Myosin light chain kinase (Homo sapiens) (UniProt Q32MK0); settings: Compound concentration 1000.0 nM
[18] = molecular target: Cyclin-dependent kinase 5 (Homo sapiens) (UniProt Q00535); settings: Compound concentration 1000.0 nM
[19] = molecular target: Bone morphogenetic protein receptor type-1A (Homo sapiens) (UniProt P36894); settings: Compound concentration 1000.0 nM
[20] = molecular target: Homeodomain-interacting protein kinase 1 (Homo sapiens) (UniProt Q86Z02); settings: Compound concentration 1000.0 nM
[21] = molecular target: Protein kinase C epsilon type (Homo sapiens) (UniProt Q02156); settings: Compound concentration 1000.0 nM
[22] = molecular target: High affinity nerve growth factor receptor (Homo sapiens) (UniProt P04629); settings: Compound concentration 1000.0 nM
[23] = molecular target: Serine/threonine-protein kinase MARK2 (Homo sapiens) (UniProt Q7KZI7); settings: Compound concentration 1000.0 nM
[24] = molecular target: Serine/threonine-protein kinase Nek3 (Homo sapiens) (UniProt P51956); settings: Compound concentration 1000.0 nM
[25] = test system: Tyrosine-protein kinase ABL1 (Homo sapiens), P00519 [H396P]; settings: Compound concentration 1000.0 nM
[26] = molecular target: RAC-gamma serine/threonine-protein kinase (Homo sapiens) (UniProt Q9Y243); settings: Compound concentration 1000.0 nM
[27] = molecular target: Cyclin-dependent kinase 4 (Homo sapiens) (UniProt P11802); settings: Compound concentration 1000.0 nM
[28] = molecular target: Ephrin type-A receptor 6 (Homo sapiens) (UniProt Q9UF33); settings: Compound concentration 1000.0 nM
[29] = test system: Receptor-type tyrosine-protein kinase FLT3 (Homo sapiens), P36888 [D835V]; settings: Compound concentration 1000.0 nM
[30] = molecular target: Tyrosine-protein kinase FRK (Homo sapiens) (UniProt P42685); settings: Compound concentration 1000.0 nM
[31] = molecular target: Calcium-dependent protein kinase 1 (Plasmodium falciparum) (UniProt P62344); settings: Compound concentration 1000.0 nM
[32] = test system: Epidermal growth factor receptor (Homo sapiens), P00533 [UNDEFINED MUTATION]; settings: Compound concentration 1000.0 nM; remark: listed apart in the source
[33] = molecular target: AP2-associated protein kinase 1 (Homo sapiens) (UniProt Q2M2I8); settings: Compound concentration 1000.0 nM
[34] = test system: Tyrosine-protein kinase ABL1 (Homo sapiens), P00519 [H396P]; settings: Compound concentration 1000.0 nM; remark: listed apart in the source
[35] = molecular target: Cyclin-dependent kinase 3 (Homo sapiens) (UniProt Q00526); settings: Compound concentration 1000.0 nM
[36] = molecular target: 5-hydroxytryptamine receptor 2A (Homo sapiens) (UniProt P28223); settings: Compound concentration 10.0 uM
[37] = molecular target: Aurora kinase C (Homo sapiens) (UniProt Q9UQB9); settings: Compound concentration 1000.0 nM
[38] = test system: Tyrosine-protein kinase ABL1 (Homo sapiens), P00519 [F317I]; settings: Compound concentration 1000.0 nM
[39] = molecular target: MAP kinase-activated protein kinase 5 (Homo sapiens) (UniProt Q8IW41); settings: Compound concentration 1000.0 nM
[40] = molecular target: Tyrosine-protein kinase JAK3 (Homo sapiens) (UniProt P52333); settings: Compound concentration 1000.0 nM
[41] = molecular target: Mu-type opioid receptor (Homo sapiens) (UniProt P35372); settings: Compound concentration 10.0 uM
[42] = test system: ALK tyrosine kinase receptor (Homo sapiens), Q9UM73 [L1196M]; settings: Compound concentration 1000.0 nM
[43] = molecular target: Ribosomal protein S6 kinase alpha-3 (Homo sapiens) (UniProt P51812); settings: Compound concentration 1000.0 nM
[44] = molecular target: Serine/threonine-protein kinase RIO1 (Homo sapiens) (UniProt Q9BRS2); settings: Compound concentration 1000.0 nM
[45] = molecular target: Inhibitor of nuclear factor kappa-B kinase subunit beta (Homo sapiens) (UniProt O14920); settings: Compound concentration 1000.0 nM

Epidermal growth factor receptor (Homo sapiens), P00533 [UNDEFINED MUTATION], sequence (P00533 whole entry, looked up, change not shown): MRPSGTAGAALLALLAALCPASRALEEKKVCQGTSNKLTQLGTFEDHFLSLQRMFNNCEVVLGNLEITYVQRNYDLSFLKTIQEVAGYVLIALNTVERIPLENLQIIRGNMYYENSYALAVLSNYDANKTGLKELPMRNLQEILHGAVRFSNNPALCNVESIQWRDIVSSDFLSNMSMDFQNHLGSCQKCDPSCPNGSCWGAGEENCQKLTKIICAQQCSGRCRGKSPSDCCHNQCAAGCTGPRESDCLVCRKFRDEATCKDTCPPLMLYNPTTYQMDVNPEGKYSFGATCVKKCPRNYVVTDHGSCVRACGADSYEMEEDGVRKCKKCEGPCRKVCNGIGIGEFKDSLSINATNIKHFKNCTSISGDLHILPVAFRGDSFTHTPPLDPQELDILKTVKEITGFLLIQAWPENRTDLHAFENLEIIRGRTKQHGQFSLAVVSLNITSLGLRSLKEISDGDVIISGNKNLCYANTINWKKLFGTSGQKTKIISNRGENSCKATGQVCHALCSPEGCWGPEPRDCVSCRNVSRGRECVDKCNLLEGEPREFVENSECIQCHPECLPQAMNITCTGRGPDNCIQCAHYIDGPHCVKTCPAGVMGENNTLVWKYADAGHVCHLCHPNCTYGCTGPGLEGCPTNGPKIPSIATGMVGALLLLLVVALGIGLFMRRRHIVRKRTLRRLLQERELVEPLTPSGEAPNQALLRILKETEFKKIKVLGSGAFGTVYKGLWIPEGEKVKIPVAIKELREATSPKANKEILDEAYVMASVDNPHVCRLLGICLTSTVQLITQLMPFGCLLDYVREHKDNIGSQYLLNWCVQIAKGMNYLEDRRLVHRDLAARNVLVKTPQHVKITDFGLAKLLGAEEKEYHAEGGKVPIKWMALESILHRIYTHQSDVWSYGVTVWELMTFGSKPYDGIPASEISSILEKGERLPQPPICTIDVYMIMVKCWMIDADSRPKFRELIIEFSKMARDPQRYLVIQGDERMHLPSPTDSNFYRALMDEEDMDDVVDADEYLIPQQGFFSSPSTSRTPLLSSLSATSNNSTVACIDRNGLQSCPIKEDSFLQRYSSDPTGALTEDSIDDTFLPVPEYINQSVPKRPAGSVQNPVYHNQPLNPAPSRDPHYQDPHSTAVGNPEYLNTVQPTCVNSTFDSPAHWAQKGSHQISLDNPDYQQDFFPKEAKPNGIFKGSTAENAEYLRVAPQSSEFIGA
Cyclin-dependent kinase 5 (Homo sapiens), sequence (Q00535 whole entry, looked up): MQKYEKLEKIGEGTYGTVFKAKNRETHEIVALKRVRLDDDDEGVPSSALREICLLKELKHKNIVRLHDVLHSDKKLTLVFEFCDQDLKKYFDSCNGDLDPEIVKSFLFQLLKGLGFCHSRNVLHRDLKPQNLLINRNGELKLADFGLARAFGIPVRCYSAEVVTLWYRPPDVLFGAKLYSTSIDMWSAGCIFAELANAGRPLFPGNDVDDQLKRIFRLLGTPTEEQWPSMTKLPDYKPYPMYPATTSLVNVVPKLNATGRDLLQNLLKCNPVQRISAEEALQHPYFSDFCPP
Tyrosine-protein kinase JAK3 (Homo sapiens), sequence (P52333 whole entry): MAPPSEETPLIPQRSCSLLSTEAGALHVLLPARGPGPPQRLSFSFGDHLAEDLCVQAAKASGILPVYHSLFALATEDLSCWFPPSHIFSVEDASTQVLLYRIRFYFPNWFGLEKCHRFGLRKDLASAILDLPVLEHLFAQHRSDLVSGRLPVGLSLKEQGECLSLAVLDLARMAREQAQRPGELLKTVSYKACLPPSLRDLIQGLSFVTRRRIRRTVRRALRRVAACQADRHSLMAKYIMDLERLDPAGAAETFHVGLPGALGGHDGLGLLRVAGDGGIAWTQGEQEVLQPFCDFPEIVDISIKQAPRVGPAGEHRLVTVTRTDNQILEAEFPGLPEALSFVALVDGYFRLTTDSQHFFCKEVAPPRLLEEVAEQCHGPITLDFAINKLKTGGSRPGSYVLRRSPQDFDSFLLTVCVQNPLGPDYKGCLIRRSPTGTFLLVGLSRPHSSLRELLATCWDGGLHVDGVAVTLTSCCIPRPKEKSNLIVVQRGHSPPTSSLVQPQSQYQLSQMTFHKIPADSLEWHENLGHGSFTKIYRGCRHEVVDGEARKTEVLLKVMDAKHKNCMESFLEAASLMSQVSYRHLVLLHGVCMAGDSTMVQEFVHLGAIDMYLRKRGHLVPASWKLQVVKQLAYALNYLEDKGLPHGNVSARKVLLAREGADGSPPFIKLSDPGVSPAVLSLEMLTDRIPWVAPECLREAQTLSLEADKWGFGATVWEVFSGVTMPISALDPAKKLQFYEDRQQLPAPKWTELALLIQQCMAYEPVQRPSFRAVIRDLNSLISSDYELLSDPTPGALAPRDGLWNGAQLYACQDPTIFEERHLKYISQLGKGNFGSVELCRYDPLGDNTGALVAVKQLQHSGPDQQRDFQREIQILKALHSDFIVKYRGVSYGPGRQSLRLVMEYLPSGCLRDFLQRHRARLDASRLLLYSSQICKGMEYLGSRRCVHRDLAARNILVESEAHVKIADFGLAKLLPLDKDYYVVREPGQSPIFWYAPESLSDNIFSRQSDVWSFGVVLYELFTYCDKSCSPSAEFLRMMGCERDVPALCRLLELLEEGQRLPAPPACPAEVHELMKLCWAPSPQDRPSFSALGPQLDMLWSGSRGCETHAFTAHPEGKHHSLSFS
Protein kinase C epsilon type (Homo sapiens), sequence (Q02156 whole entry): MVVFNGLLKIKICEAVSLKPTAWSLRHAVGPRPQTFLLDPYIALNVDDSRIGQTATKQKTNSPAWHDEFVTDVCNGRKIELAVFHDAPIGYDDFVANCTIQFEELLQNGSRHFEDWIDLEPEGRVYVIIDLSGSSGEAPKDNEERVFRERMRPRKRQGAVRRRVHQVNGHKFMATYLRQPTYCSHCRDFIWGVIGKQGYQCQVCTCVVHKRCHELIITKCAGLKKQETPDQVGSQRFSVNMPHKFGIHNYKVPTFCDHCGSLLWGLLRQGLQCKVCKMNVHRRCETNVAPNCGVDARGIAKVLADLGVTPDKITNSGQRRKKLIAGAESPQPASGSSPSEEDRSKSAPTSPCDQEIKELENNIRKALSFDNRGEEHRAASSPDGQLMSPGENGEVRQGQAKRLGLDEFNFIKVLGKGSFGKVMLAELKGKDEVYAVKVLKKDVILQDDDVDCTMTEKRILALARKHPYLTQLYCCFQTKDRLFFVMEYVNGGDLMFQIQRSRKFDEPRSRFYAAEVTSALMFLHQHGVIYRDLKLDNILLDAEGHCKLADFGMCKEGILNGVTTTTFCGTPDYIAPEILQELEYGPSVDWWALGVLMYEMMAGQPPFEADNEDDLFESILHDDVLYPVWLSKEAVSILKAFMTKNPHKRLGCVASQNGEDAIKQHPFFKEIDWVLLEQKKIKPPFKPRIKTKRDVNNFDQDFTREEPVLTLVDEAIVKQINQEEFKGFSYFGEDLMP
Phosphatidylinositol 5-phosphate 4-kinase type-2 beta (Homo sapiens), sequence (P78356 whole entry): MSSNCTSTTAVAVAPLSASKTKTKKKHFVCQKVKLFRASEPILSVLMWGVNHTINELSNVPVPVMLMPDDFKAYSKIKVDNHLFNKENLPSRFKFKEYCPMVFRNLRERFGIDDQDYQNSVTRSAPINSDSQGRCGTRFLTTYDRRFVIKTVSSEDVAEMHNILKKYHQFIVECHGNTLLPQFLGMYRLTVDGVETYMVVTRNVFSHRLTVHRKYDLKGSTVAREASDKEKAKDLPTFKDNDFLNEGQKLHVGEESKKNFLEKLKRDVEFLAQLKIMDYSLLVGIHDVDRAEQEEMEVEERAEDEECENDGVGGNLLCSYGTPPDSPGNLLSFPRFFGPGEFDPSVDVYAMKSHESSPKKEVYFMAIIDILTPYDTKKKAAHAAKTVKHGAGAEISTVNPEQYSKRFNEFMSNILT
Cyclin-dependent kinase 3 (Homo sapiens), sequence (Q00526 whole entry, looked up): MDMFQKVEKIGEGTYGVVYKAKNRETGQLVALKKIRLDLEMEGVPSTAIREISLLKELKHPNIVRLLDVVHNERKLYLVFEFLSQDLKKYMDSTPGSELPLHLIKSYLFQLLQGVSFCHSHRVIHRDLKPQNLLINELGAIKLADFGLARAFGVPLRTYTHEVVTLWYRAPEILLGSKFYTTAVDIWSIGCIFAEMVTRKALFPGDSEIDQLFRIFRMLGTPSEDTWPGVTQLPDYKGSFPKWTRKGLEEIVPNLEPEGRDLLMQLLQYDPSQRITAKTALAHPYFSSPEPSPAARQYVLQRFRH
Serine/threonine-protein kinase BRSK1 (Homo sapiens), sequence (Q8TDC3 whole entry): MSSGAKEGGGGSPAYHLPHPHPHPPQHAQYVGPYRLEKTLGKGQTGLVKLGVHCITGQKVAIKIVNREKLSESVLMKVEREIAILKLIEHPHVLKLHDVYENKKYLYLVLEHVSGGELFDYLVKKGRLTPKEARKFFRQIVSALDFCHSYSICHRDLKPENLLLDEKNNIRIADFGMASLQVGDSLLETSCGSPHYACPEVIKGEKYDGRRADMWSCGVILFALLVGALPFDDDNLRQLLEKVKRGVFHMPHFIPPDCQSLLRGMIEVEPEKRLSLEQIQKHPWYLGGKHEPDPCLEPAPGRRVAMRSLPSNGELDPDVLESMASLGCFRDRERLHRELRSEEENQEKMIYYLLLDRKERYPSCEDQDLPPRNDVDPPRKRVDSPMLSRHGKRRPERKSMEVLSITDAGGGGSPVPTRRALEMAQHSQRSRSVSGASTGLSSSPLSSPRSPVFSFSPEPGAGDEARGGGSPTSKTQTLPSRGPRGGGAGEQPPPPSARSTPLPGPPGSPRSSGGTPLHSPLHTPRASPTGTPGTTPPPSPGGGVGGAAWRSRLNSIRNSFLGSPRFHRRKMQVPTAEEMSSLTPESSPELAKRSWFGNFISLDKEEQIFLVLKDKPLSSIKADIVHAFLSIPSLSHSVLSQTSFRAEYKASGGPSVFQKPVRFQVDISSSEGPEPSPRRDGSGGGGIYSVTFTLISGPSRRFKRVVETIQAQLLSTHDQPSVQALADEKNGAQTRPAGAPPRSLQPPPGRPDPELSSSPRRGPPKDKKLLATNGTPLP

`C[C@H](c1cccc(C#N)c1)n1cc(Cl)cc(C(N)=O)c1=N` [(R)-9s] gave a residual activity [1] of 100%, a residual activity [2] of 100% and a residual activity [3] of 100%. It also gave a residual activity [4] of 97%, a residual activity [5] of 68% and a residual activity [6] of 78%. It also gave an inhibition [7] of 1.16%, a residual activity [8] of 100% and a residual activity [9] of 88%. It also gave a residual activity [10] of 100%, a residual activity [11] of 97% and a residual activity [12] of 52%. The residual activity [13] was 63%, the inhibition [14] was 9.56% and the residual activity [15] was 76%. The residual activity [16] was 95%, the residual activity [17] was 94% and the residual activity [18] was 100%. The residual activity [19] was 100%, the residual activity [20] was 83% and the residual activity [21] was 87%. The residual activity [22] was 100%, the residual activity [23] was 100% and the residual activity [24] was 66%. It also gave a residual activity [25] of 55%, a residual activity [26] of 100% and a residual activity [27] of 88%. It also gave a residual activity [28] of 86%, a residual activity [29] of 89% and a residual activity [30] of 98%. The residual activity [31] was 86%, the residual activity [32] was 75% and the residual activity [33] was 100%. It also gave a residual activity [34] of 79%, a residual activity [35] of 100% and an inhibition [36] of 12.3%. The residual activity [37] was 91%, the residual activity [38] was 85% and the residual activity [39] was 84%. The residual activity [40] was 94%, the inhibition [41] was -5.45% and the residual activity [42] was 76%. It also gave a residual activity [43] of 95%, a residual activity [44] of 100% and a residual activity [45] of 100%.
In the case of `C[C@@H](c1cccc(C#N)c1)n1cc(Cl)cc(C(N)=O)c1=N` [(S)-9s], the residual activity [1] is reported as 82%, the residual activity [2] is reported as 100% and the residual activity [3] is reported as 91%. For the same compound, the residual activity [4] was 100%, the residual activity [5] was 93% and the residual activity [6] was 88%. The inhibition [7] was -6.15%, the residual activity [8] was 100% and the residual activity [9] was 85%. For the same compound, the residual activity [10] was 96%, the residual activity [11] was 100% and the residual activity [12] was 73%. The residual activity [13] was 86%, the inhibition [14] was 16.8% and the residual activity [15] was 98%. It also gave a residual activity [16] of 85%, a residual activity [17] of 98% and a residual activity [18] of 92%. For the same compound, the residual activity [19] was 100%, the residual activity [20] was 79% and the residual activity [21] was 89%. It also gave a residual activity [22] of 100%, a residual activity [23] of 100% and a residual activity [24] of 44%. The residual activity [25] was 54%, the residual activity [26] was 100% and the residual activity [27] was 99%. It also gave a residual activity [28] of 91%, a residual activity [29] of 95% and a residual activity [30] of 100%. For the same compound, the residual activity [31] was 78%, the residual activity [32] was 93% and the residual activity [33] was 100%. For the same compound, the residual activity [34] was 76%, the residual activity [35] was 100% and the inhibition [36] was 5.24%. It also gave a residual activity [37] of 96%, a residual activity [38] of 76% and a residual activity [39] of 93%. For the same compound, the residual activity [40] was 100%, the inhibition [41] was -6.83% and the residual activity [42] was 82%. It also gave a residual activity [43] of 94%, a residual activity [44] of 86% and a residual activity [45] of 100%.
